The term pIC50 denotes the negative decadic logarithm of the IC50, by convention in mol/L.

pIC50: −log10 of the molar value. Bounds are passed on as bounds.

In one experiment the target is Nitric oxide synthase 1 (Homo sapiens, UniProt P29475). In words: Compound was tested for inhibitory activity against neuronal nitric oxide synthase.
The target of experiment [1] is T1, Nitric oxide synthase, inducible (Homo sapiens, UniProt P35228). In words: Compound was tested for inhibitory activity against inducible nitric oxide synthase.
Experiment [2] deals with T1, Nitric oxide synthase, inducible. In words: Compound was tested for inhibitory activity against inducible nitric oxide synthase using L-arginine as substrate.

T1 sequence (P35228 whole entry): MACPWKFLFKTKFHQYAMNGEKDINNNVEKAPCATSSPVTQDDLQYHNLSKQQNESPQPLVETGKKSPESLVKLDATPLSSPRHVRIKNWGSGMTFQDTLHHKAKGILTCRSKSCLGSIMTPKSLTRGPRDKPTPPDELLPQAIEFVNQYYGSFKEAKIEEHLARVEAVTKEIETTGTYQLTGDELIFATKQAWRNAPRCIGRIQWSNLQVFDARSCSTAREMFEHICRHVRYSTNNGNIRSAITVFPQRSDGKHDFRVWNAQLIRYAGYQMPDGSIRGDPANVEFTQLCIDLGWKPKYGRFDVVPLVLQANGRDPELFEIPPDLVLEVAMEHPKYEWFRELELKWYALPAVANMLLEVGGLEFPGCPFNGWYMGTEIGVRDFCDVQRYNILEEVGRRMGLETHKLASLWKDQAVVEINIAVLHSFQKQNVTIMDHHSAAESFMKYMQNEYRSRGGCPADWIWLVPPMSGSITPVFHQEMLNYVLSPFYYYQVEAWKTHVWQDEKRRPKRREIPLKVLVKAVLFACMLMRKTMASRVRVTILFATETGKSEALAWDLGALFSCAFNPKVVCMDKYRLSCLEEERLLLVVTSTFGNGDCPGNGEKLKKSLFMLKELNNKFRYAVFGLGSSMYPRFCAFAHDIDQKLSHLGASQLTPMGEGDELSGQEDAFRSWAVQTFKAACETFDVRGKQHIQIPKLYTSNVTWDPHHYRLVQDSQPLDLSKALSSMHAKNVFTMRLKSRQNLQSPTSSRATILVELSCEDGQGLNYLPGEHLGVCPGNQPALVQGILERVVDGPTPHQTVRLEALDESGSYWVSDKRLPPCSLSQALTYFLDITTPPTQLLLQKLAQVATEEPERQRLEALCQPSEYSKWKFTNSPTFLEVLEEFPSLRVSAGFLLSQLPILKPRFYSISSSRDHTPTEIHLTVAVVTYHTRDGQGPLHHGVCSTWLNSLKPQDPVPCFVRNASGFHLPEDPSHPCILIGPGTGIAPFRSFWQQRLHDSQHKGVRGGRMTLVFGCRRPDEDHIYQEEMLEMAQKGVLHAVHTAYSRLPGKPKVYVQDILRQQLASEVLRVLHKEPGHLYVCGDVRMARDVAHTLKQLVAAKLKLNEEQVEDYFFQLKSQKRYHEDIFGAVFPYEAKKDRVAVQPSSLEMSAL
Chain of Nitric oxide synthase 1 (P29475 whole entry): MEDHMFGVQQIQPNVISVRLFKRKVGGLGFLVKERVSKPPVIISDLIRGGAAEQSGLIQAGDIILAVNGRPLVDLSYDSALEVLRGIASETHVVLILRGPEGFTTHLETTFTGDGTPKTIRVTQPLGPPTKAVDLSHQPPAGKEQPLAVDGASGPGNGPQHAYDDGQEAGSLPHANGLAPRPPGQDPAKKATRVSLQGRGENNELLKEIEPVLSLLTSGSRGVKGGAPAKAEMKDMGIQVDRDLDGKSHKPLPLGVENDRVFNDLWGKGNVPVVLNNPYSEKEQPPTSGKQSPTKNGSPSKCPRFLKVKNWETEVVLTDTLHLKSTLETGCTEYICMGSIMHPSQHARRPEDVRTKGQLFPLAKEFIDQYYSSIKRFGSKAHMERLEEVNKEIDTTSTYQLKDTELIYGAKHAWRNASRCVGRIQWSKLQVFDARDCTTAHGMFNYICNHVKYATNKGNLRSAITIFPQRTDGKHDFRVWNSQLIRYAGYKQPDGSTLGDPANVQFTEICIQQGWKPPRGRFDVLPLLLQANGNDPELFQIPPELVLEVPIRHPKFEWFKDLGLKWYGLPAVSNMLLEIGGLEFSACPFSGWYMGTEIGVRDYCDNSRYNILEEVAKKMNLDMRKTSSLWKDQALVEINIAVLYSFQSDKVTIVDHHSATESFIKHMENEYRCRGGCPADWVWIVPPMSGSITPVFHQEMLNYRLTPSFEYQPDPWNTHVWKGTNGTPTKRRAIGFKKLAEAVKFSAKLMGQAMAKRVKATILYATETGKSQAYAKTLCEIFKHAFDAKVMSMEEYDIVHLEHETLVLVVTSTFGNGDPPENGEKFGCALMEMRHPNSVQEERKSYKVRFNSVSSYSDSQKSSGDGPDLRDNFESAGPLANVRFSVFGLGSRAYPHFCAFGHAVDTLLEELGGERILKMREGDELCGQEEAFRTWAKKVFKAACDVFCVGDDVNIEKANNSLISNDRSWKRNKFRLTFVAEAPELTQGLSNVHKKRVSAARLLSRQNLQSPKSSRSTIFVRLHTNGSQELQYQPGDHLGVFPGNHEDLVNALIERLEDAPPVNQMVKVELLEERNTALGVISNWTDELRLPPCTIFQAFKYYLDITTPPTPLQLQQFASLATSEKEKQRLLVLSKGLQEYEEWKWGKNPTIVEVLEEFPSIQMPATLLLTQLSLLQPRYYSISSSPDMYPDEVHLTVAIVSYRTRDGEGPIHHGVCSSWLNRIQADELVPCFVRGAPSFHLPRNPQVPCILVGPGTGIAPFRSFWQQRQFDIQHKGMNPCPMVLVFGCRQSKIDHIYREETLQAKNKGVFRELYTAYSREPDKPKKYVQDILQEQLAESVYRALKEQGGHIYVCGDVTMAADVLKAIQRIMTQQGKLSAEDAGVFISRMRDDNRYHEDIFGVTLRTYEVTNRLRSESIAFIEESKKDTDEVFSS

Regarding `CC(=O)N[C@@H](CCCN=C(N)N)B(O)O`, the pIC50 (against Nitric oxide synthase 1; in experiment [1]) was less than 3.30 throughout.
Molecule `NC(N)=NCCC[C@H](N)B(O)O` showed a Ks in experiment [2] of 200 µM. Further, the pIC50 against Nitric oxide synthase 1 was 3.52; in experiment [1], 4.30.

These data come from ChEMBL document CHEMBL1130584, “Synthesis of boronic acid analogs of L-arginine as alternate substrates or inhibitors of nitric oxide synthase” (Bioorg Med Chem Lett, 1998).
